Where two headings read alike, the source gives them in different places.
Legend:
human DGKα = human DGKα (Homo sapiens, UniProt P23743); assay: DGKα Biochemical Activity Assay (ADP-Glo); conditions: recombinant DGKα 1 nM, 100 μM ATP, 18:1 DAG/POPS/octylglucoside micelles, 1 hour at 25° C.; geometric mean; read-out: HTBS DGKa 1X ATP KM IC50;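 also: luminescent detection of ADP produced as DGKα phosphorylates DAG to phosphatidic acid, IC50 from four-parameter nonlinear curve fit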
[1] = tested on: Jurkat NFκB-luciferase cells; assay: Jurkat NFκB-Luciferase Assay; assay type: cell-based; conditions: Homo sapiens
Description: The day after, the excess antibody was washed out five times with 100 ul/well of assay medium (RPMI supplemented with 10% fetal bovine serum) using a Biotek EL406 instrument and leaving 20 ul of residual volume in each well. Jurkat NFκB-luciferase cells (Promega #) were harvested and diluted to 1 million cells/ml in assay medium. […] Thirty microliters of medium containing the Jurkat NFκB-luciferase cells were then dispensed using a Biotek MicroFlo instrument in each well of the compound-containing plate. […] Forty microliters of One-Glo Ex (Promega) was then added to the assay mixture and luciferase activity was read on a Envision plate reader 7 minutes later.

[2] = Jurkat NFκB-luciferase cells activated with anti-CD3 antibody (OKT3), 2.5 hrs at 37° C., geometric mean, read-out: DGK NFKb Luciferase EC50
[3] = Jurkat, […], read-out: DGK NFKb Luciferase EC50 (nM)

Sequence of human DGKα (P23743 whole entry): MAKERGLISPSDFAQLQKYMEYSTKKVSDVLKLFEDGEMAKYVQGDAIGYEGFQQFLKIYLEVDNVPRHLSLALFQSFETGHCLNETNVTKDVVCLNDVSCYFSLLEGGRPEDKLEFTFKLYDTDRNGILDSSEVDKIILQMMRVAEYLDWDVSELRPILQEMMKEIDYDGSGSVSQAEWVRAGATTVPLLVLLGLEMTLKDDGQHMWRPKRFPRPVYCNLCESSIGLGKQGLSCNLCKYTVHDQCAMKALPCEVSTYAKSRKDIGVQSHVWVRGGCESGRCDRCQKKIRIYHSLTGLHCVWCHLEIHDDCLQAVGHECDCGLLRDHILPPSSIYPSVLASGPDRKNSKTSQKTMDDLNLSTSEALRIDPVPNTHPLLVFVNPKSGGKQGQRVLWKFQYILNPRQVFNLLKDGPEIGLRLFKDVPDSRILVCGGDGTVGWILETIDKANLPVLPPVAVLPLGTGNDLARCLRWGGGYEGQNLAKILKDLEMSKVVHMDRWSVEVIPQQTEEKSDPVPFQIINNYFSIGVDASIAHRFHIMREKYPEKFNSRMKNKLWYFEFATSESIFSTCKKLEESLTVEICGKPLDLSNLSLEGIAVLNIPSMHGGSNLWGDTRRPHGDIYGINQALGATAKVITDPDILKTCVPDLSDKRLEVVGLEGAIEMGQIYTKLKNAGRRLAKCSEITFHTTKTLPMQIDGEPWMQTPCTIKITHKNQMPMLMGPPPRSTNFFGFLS

Row | Structure (SMILES) | IC50 (human DGKα) [nM] | EC50 [1, 2] [nM] | EC50 [1, 3] [nM]
1 | Cc1nnc2nc(N(CC(F)F)c3ccnc(C#CC(C)(C)C(F)F)c3F)c3c(F)cccc3n12 [Example 42, N-[2-(4,4-difluoro-3,3-dimethyl-but-1-ynyl)-3-fluoro-4-pyridyl]-N-(2,2-difluoroethyl)-6-fluoro-1-methyl-[1,2,4]triazolo[4,3-a]quinazolin-5-amine] | 6.93 | 2.32 | –
2 | Cc1nnc2nc(N(CC(F)F)c3ccnc(C#CC(C)(C)C(F)(F)F)c3F)c3c(F)cccc3n12 [Example 43, N-(2,2-difluoroethyl)-6-fluoro-N-[3-fluoro-2-(4,4,4-trifluoro-3,3-dimethyl-but-1-ynyl)-4-pyridyl]-1-methyl-[1,2,4]triazolo[4,3-a]quinazolin-5-amine] | 9.97 | 1.22 | –
3 | Cc1nnc2nc(N(CC(F)F)c3ccnc(C#CC4(C(F)F)CC4)c3F)c3c(F)cccc3n12 [Example 44, N-(2,2-difluoroethyl)-N-[2-[2-[1-(difluoromethyl)cyclopropyl]ethynyl]-3-fluoro-4-pyridyl]-6-fluoro-1-methyl-[1,2,4]triazolo[4,3-a]quinazolin-5-amine] | 3.81 | 7.15 | –
4 | Cc1nnc2nc(N(CC(F)F)c3ccnc(C#CC(C)(C)O)c3F)c3c(F)cccc3n12 [Example 45, 4-[4-[2,2-difluoroethyl-(6-fluoro-1-methyl-[1,2,4]triazolo[4,3-a]quinazolin-5-yl)amino]-3-fluoro-2-pyridyl]-2-methyl-but-3-yn-2-ol] | 8.25 | – | 329
5 | CC(C)(C#Cc1cc(F)cc(N(CC(F)F)c2nc3nncn3c3c(Cl)cc(F)cc23)c1)C(F)F [Example 46, 9-chloro-N-[3-(4,4-difluoro-3,3-dimethyl-but-1-ynyl)-5-fluoro-phenyl]-N-(2,2-difluoroethyl)-7-fluoro-[1,2,4]triazolo[4,3-a]quinazolin-5-amine] | 15.6 | 1.75 | –
6 | Fc1cc(C#CC2(C(F)F)CC2)cc(N(CC(F)F)c2nc3nncn3c3c(Cl)cc(F)cc23)c1 [Example 47, 9-chloro-N-(2,2-difluoroethyl)-N-[3-[2-[1-(difluoromethyl)cyclopropyl]ethynyl]-5-fluoro-phenyl]-7-fluoro-[1,2,4]triazolo[4,3-a]quinazolin-5-amine] | 18.8 | 3.92 | –
7 | Fc1cc(C#CC2(C(F)(F)F)CC2)cc(N(CC(F)F)c2nc3nncn3c3c(Cl)cc(F)cc23)c1 [Example 48, 9-chloro-N-(2,2-difluoroethyl)-7-fluoro-N-[3-fluoro-5-[2-[1-(trifluoromethyl)cyclopropyl]ethynyl]phenyl]-[1,2,4]triazolo[4,3-a]quinazolin-5-amine] | 5.73 | 3.02 | –
8 | CC1(C#Cc2cc(F)cc(N(CC(F)F)c3nc4nncn4c4c(Cl)cc(F)cc34)c2)CC1 [Example 49, 9-chloro-N-(2,2-difluoroethyl)-7-fluoro-N-[3-fluoro-5-[2-(1-methylcyclopropyl)ethynyl]phenyl]-[1,2,4]triazolo[4,3-a]quinazolin-5-amine] | 12.4 | 1.36 | –
9 | CC(C)(O)C#Cc1cc(F)cc(N(CC(F)F)c2nc3nncn3c3c(Cl)cc(F)cc23)c1 [Example 50, 4-[3-[(9-chloro-7-fluoro-[1,2,4]triazolo[4,3-a]quinazolin-5-yl)-(2,2-difluoroethyl)amino]-5-fluoro-phenyl]-2-methyl-but-3-yn-2-ol] | 11.9 | – | 16.8
10 | Cc1nnc2nc(N(CC(F)F)c3cccc(C#CC4(C(F)F)CC4)c3F)c3c(F)cccc3n12 [Example 51, N-(2,2-difluoroethyl)-N-[3-[2-[1-(difluoromethyl)cyclopropyl]ethynyl]-2-fluoro-phenyl]-6-fluoro-1-methyl-[1,2,4]triazolo[4,3-a]quinazolin-5-amine] | 5.01 | 1.92 | –
11 | Cc1nnc2nc(N(CC(F)F)c3cccc(C#CC4(C)CC4)c3F)c3c(F)cccc3n12 [Example 52, N-(2,2-difluoroethyl)-6-fluoro-N-[2-fluoro-3-[2-(1-methylcyclopropyl)ethynyl]phenyl]-1-methyl-[1,2,4]triazolo[4,3-a]quinazolin-5-amine] | 7.98 | 0.583 | –
12 | Cc1nnc2nc(N(CC(F)F)c3cccc(C#CC(C)(C)C(F)F)c3F)c3c(F)cccc3n12 [Example 53, N-[3-(4,4-difluoro-3,3-dimethyl-but-1-ynyl)-2-fluoro-phenyl]-N-(2,2-difluoroethyl)-6-fluoro-1-methyl-[1,2,4]triazolo[4,3-a]quinazolin-5-amine] | 18.6 | 0.792 | –
13 | Cc1nnc2nc(N(CC(F)F)c3cccc(C#CC4(C(F)(F)F)CC4)c3F)c3c(F)cccc3n12 [Example 54, N-(2,2-difluoroethyl)-6-fluoro-N-[2-fluoro-3-[2-[1-(trifluoromethyl)cyclopropyl]ethynyl]phenyl]-1-methyl-[1,2,4]triazolo[4,3-a]quinazolin-5-amine] | 32.8 | 1.64 | –
14 | Cc1nnc2nc(N(CC(F)F)c3cccc(C#CC(C)(C)C(F)F)c3F)c3cc(F)ccc3n12 [Example 55, N-[3-(4,4-difluoro-3,3-dimethyl-but-1-ynyl)-2-fluoro-phenyl]-N-(2,2-difluoroethyl)-7-fluoro-1-methyl-[1,2,4]triazolo[4,3-a]quinazolin-5-amine] | 21.6 | 3.42 | –

The next lines start with results.

Row | IC50 (human DGKα) [nM] | EC50 [1, 2] [nM] | Structure (SMILES) | EC50 [1, 3] [nM]
15 | 13.5 | 0.805 | Cc1nnc2nc(N(CC(F)F)c3cccc(C#CC4(C)CC4)c3F)c3cc(F)ccc3n12 [Example 56, N-(2,2-difluoroethyl)-7-fluoro-N-[2-fluoro-3-[2-(1-methylcyclopropyl)ethynyl]phenyl]-1-methyl-[1,2,4]triazolo[4,3-a]quinazolin-5-amine] | –
16 | 46.2 | 0.669 | CC(C)(C#Cc1cccc(N(CC(F)F)c2nc3nncn3c3ccc(F)cc23)c1F)C(F)F [Example 57, N-[3-(4,4-difluoro-3,3-dimethyl-but-1-ynyl)-2-fluoro-phenyl]-N-(2,2-difluoroethyl)-7-fluoro-[1,2,4]triazolo[4,3-a]quinazolin-5-amine] | –
17 | 78.3 | 3.67 | Cc1nnc2nc(N3c4cccc(C#CC5(C(F)(F)F)CC5)c4CCC3C)c3c(F)cccc3n12 (centres unmarked) [Example 58, 6-fluoro-1-methyl-5-(2-methyl-5-((1-(trifluoromethyl)cyclopropyl)ethynyl)-3,4-dihydroquinolin-1(2H)-yl)-[1,2,4]triazolo[4,3-a]quinazoline] | –
18 | 11.2 | 11.7 | Cc1nnc2nc(N3c4cccc(C#CC(C)(C)O)c4CCC3C)c3c(F)cccc3n12 (centres unmarked) [Example 59, 4-(1-(6-fluoro-1-methyl-[1,2,4]triazolo[4,3-a]quinazolin-5-yl)-2-methyl-1,2,3,4-tetrahydroquinolin-5-yl)-2-methylbut-3-yn-2-ol] | –
19 | 69.2 | 532 | CC(C)(O)C#Cc1cc(N(CC(F)F)c2nc3nncn3c3c(Cl)cc(F)cc23)ccn1 [Example 60, 4-(4-((9-chloro-7-fluoro-[1,2,4]triazolo[4,3-a]quinazolin-5-yl)(2,2-difluoroethyl)amino)pyridin-2-yl)-2-methylbut-3-yn-2-ol] | –
20 | 8.48 | 3.36 | CC1(C#Cc2cc(N(CC(F)F)c3nc4nncn4c4c(Cl)cc(F)cc34)ccn2)CC1 [Example 61, 9-chloro-N-(2,2-difluoroethyl)-7-fluoro-N-(2-((1-methylcyclopropyl)ethynyl)pyridin-4-yl)-[1,2,4]triazolo[4,3-a]quinazolin-5-amine] | –
21 | 80.1 | 3.24 | Cc1nnc2nc(N(CC(F)F)c3cc(F)cc(C#CC(C)(C)c4ccncc4)c3)c3c(F)c(F)ccc3n12 [Example 62, N-(2,2-difluoroethyl)-6,7-difluoro-N-(3-fluoro-5-(3-methyl-3-(pyridin-4-yl)but-1-yn-1-yl)phenyl)-1-methyl-[1,2,4]triazolo[4,3-a]quinazolin-5-amine] | –
22 | 19.4 | 4.17 | Cc1nnc2nc(N3CCOCc4c(C#CC(C)(C)C(=O)NC(C)(C)C(F)(F)F)cccc43)c3c(F)c(F)ccc3n12 [Example 63, 4-(1-(6,7-difluoro-1-methyl-[1,2,4]triazolo[4,3-a]quinazolin-5-yl)-1,2,3,5-tetrahydrobenzo[e][1,4]oxazepin-6-yl)-2,2-dimethyl-N-(1,1,1-trifluoro-2-methylpropan-2-yl)but-3-ynamide] | –
23 | 9.97 | 7.43 | Cc1nnc2nc(N3CCOCc4c(C#CC(C)(C)C(=O)NC5(C(F)(F)F)CC5)cccc43)c3c(F)c(F)ccc3n12 [Example 64, 4-(1-(6,7-difluoro-1-methyl-[1,2,4]triazolo[4,3-a]quinazolin-5-yl)-1,2,3,5-tetrahydrobenzo[e][1,4]oxazepin-6-yl)-2,2-dimethyl-N-(1-(trifluoromethyl)cyclopropyl)but-3-ynamide] | –
24 | 189 | 46.7 | Cc1nnc2nc(N3CCCc4c(C#CC(C)(C)C(=O)NC5(C(F)(F)F)CC5)cccc43)c3c(F)cccc3n12 [Example 65, 4-(1-(6-fluoro-1-methyl-[1,2,4]triazolo[4,3-a]quinazolin-5-yl)-1,2,3,4-tetrahydroquinolin-5-yl)-2,2-dimethyl-N-(1-(trifluoromethyl)cyclopropyl)but-3-ynamide] | –
25 | 12.8 | 6.78 | Cc1cnc(C(C)(C)C#Cc2cccc3c2COCCN3c2nc3nnc(C)n3c3ccc(F)c(F)c23)o1 [Example 66, 1-(6,7-difluoro-1-methyl-[1,2,4]triazolo[4,3-a]quinazolin-5-yl)-6-(3-methyl-3-(5-methyloxazol-2-yl)but-1-yn-1-yl)-1,2,3,5-tetrahydrobenzo[e][1,4]oxazepine] | –

Reference: patent US11976072B2, “Diacylglycerol kinase modulating compounds” (priority 2021, dated 2024)
